Read-outs that look alike come from different tables or passages of the source.
Tests used:
[1] = Shake flask solubility measurement; type: physicochemical; conditions: aqueous buffer, thermodynamic from solid, phosphate buffer pH 7.4, 37° C.
Experimental: Compound solubility in aqueous solution is determined by a standard method in the art, the shake flask method. Solubility measurement is performed under equilibrium conditions at pH 7.4. Samples are prepared by dissolving an excess of the test compound in a phosphate buffer (made up of 3,954 g sodium hydrogenphosphate-monohydrate, 6,024 g sodium chloride, 950 ml ultrapure water and adjusted to pH 7.4 with 0.1 M NaOH or 0.1 M HCl). These samples are shaken at 37° C. with 450 rpm (shaker: TiMix control Bühler) for 24 h in total until equilibrium is reached. After 7 hours shaking, the pH value of the sample is controlled and adjusted, if necessary. It is also checked that the sample (test compound) is available in excess. Shortly before the end of 24 h, samples are checked again for pH and precipitate. At the end of 24 h and after separation of the solid by filtration, the concentration of the compound in the filtrate is determined by liquid chromatography using […] (LC-UV).
Sample preparation: Incubation hood: TH 15 Bühler; pH device 766 Calimatic Knick; pH electrode InLab 423 Mettler
Chromatography Conditions:
Column: Chromolith RP18e 100×3 mm
Wavelength range: 190-400 nm • select a suitable evaluation wavelength
Injection volume: Probe 5 μl and 15 μl; Standard 5 μl
Column stove temperature: 37° C.
Eluent A: water/formic acid (999:1; v/v)
Eluent B: acetonitrile/formic acid (999:1; v/v)

[2] = biological target: T1, purified human recombinant MTH1 (human MTH1, residues 42-197) (Homo sapiens, UniProt P36639); test: MTH1 enzymatic assay (luminescence-based, PPiLight); type: biochemical
T1 construct: human MTH1, residues 42-197, Uniprot-ID: P36639, expressed in E. coli; made in house; host or cells: E. coli

[3] = Microsomal stability (intrinsic clearance), mouse; type: in vitro ADME; conditions: mouse liver microsomes, 0.5 mg/ml protein, Clint
Excerpt: (§1) A microsomal stability assay is used to measure in vitro clearance (Clint). The assay involves measuring the rate of disappearance of a compound due to its intrinsic attitude to be metabolized (“intrinsic” meaning that the disappearance is not affected by other properties like permeability, binding etc. that play a role when quantifying in vivo clearance). The microsomal stability (intrinsic clearance, Clint) and thus metabolic stability is generally given as μl/min/mg protein. It can be visualized as the volume of solution that 1 mg of microsomes is able to clear of the compound in one minute.
(§2) A Tecan Genesis workstation (RSP 150/8) was used for to perform the microsomal incubations. Analysis was carried out using a Waters ACQUITY UPLC system coupled to an ABSciex API3000 mass spectrometer. Data analysis was performed using Assay Explorer (Symyx).
(§3) Column: Acquity UPLC BEH C18, 2.1×50 mm, 1.7 μm (Waters) Mobile phases: A=0.1% formic acid in water; B=acetonitrile
(§4) Flow rate: 0.750 mL/min; Detection: ESI, MRM; Injection: 10 μL; Column temperature: 50° C.
(§5) • Potassium phosphate buffer: 0.05 M potassium phosphate buffer pH 7.4 containing 1 mM MgCl2 • NADPH (nicotinamide adenine dinucleotide phosphate): 22.5 mg NADPH-Na4 in 1.8 ml potassium phosphate buffer • Acetonitrile: 50 Vol % acetonitrile (1 volume acetonitrile, 1 volume water) • DMSO: 20 Vol % DMSO in water • Stock solution of 20 mg/ml human or mouse liver microsomes (protein)/ml in phosphate buffer • Stock solution of 10 mM compound in 100% DMSO
(§6) Dilution of test compounds was done in 2 steps starting from a 10 mM stock solution of the respective compound in 100% DMSO. First 4 μl stock solution was added to 196 μl of 20 Vol % DMSO. In a second step, 10 μl of the first dilution were added to 1590 μl potassium phosphate buffer to achieve a final concentration of 1.25 μM in the final compound dilution. Thus, the amount of organic solvent in the assay was kept to a minimum (<1%).
(§7) The human or mouse liver microsome (protein) solution to be used in the assay was prepared by mixing 750 μl stock solution (20 mg/ml) and 2250 μl potassium phosphate buffer to a final concentration of 5 mg/ml.
(§8) Incubation was carried out on a 96 deep well incubation plate. 160 μl per well of the final compound dilution were transferred onto the incubation plate. Four samples of each compound dilution were assayed. 20 μl/well liver microsome solution was added to each well and the samples were then preincubated for 5 min at 37° C. and 800 rpm agitation. Two reference compounds (verapamil and dextromethorphan) were used in parallel in every experiment and for each species (human or mouse microsomes) to ensure system performance and for comparison.
(§9) On a separate stop plate, 160 μl acetonitrile were added per well.
(§10) After preincubation, i.e. at time t1=0 minutes, 18 μl samples of incubated compound solution and were transferred and added per well (containing acetonitrile) on the stop plate to prevent a reaction (0 minutes control samples, 4 samples per compound). Equally, 18 μl samples of incubated reference compound solution were transferred and added per well (containing acetonitrile) on the stop plate at time t1=0 minutes and again after 30 minutes (t4), solubility and chemical stability of the compound were checked. […]

[4] = Microsomal stability (intrinsic clearance), human; type: in vitro ADME; conditions: human liver microsomes, 0.5 mg/ml protein, Clint
Excerpt: as §1, §2, §3, §4, §5, §6, §7, §8, §9, §10

[5] = biological target: T2, humanMTH1 (aminoacids 42 to 197) (Homo sapiens, UniProt P36639); test: Binding affinities and kinetics on MTH1 surfaces by surface plasmon resonance (SPR); conditions: for Kd: SPR, Biacore4000, 25° C., Table 1, grouped, read-out: KD IC50; for residence time: on MTH1, calculated on the basis of the KD values
T2 construct: humanMTH1 (aminoacids 42 to 197); His tag at the N-terminus; purchased Abnova ab99390; host or cells: E. coli
Experimental: The SPR experiments were performed using a Biacore4000 instrument. […] HumanMTH1 was immobilized on Biacore CM5 chips at 25° C. and a flow rate of 10 μL/min using amine coupling at pH 5.5 and in presence of 1 μM MSC2567771B-1 according to Biacore's standard protocol. MTH1 was applied at a concentration of 10 μg/mL and depending on the duration of the injection time immobilization levels between 500 and 2,000 RU were obtained. Sample compounds were applied in form of titration series with a doubling of concentration at each subsequent injection. In general, 10 concentrations were injected covering a dilution range of 500 fold. Before and after each of these titration series the binding capability of the surface was controlled by the injection of the positive control S-Crizotinib at a fixed concentration of 2 μM. Kinetic titration experiments were performed at 25° C. with a flow rate of 30 μL/min, a sample contact time of 90 sec and a dissociation time of 420 sec in running buffer (20 mM Tris-HCl (Tris(hydroxymethyl)-aminomethane HCl) pH 7.40, 150 mM NaCl, 5 mM MgCl2, 1 mM DTT (dithiothreitol), 0.1 mM EGTA (ethylene glycol tetraacetic acid), 0.05% Tween 20) containing 2% DMSO (dimethyl sulfoxide). Buffer injections identical to the sample injections were executed at the beginning of the successive series for the purpose of double referencing. Solvent correction cycles (eight correction points, 1.4%-2.8% DMSO) were run at the same intervals. For surface conditioning ten start-up cycles (buffer injections) were run. Data points were collected at a sample rate of 10 Hz.
Data sets were processed and analyzed using the software Biacore4000 Evaluation, version 1.0. Solvent corrected and double-referenced association and dissociation phase data were fitted to a simple 1:1 interaction model with mass transport limitations.
Measured values are indicated as KD IC50 in the Table below.

[6] = 6 μM 8-oxo-dGTP, Table 1, grouped

| SMILES | solubility at 24 h [1] [µg/mL] | IC50 [2, 6] [nM] | IC50 ([2]; Table 2) [nM] | Microsomal stability mouse [3] [μl/min/mg prot.] | Microsomal stability human [4] [μl/min/mg prot.] | Kd [5] [nM] | residence time ([5]; read-out: Residence time) [min] | residence time [5] [min] |
| --- | --- | --- | --- | --- | --- | --- | --- | --- |
| CNc1cc(N2CCC(O)C2)nc(N)n1 (stereo not drawn) [Example 7, 1-(2-amino-6-methylamino-pyrimidin-4-yl)-pyrrolidin-3-ol-formate] | > 1000 | 1 to 100 | 1.3 | <10 | <10 | – | – | – |
| NC(=O)C1CCN(c2cc(NC3CC3)nc(N)n2)C1 (stereo not drawn) [Example 5, 1-(2-amino-6-cyclopropylamino-pyrimidin-4-yl)-pyrrolidine-3-carboxylic acid amide-formate] | > 1000 | 1 to 100 | 7 | 13 | <10 | – | – | – |
| CNc1cc(N2CCCC[C@@H]2Cc2ccc(OC)cc2)nc(N)n1 [Example 116, 6-[(R)-2-(4-Methoxy-benzyl)-piperidin-1-yl]-N4-methyl-pyrimidine-2,4-diamine] | – | < 1 | – | – | – | – | ≥ 10 | – |
| CNc1cc(N2C(=O)CCC2Cc2ccccc2)nc(N)n1 (stereo not drawn) [Example 114, 1-(2-Amino-6-methylamino-pyrimidin-4-yl)-5-benzyl-pyrrolidin-2-one] | – | 1 to 100 | – | – | – | 1 to 100 | – | – |
| CNc1cc(N2CCCC2Cc2ccccc2Cl)nc(N)n1 (stereo not drawn) [Example 98, 6-[2-(2-Chloro-benzyl)-pyrrolidin-1-yl]-N4-methyl-pyrimidine-2,4-diamine] | – | < 1 | – | – | – | 1 to 100 | ≥ 10 | – |
| C[C@H]1C(c2ccccc2)CCN1c1cc(NC2CC2)nc(N)n1 (stereo in doubt) [Example 54, N4-Cyclopropyl-6-((2S,3R)-2-methyl-3-phenyl-pyrrolidin-1-yl)-pyrimidine-2,4-diamine] | – | 1 to 100 | – | – | – | 1 to 100 | – | – |
| CNc1cc(N2CCC(C(=O)NCCc3ccc(S(=O)(=O)F)cc3)CC2)nc(N)n1 [Example 120, 4-(2-{[1-(2-Amino-6-methylamino-pyrimidin-4-yl)-piperidine-4-carbonyl]-amino}-ethyl)-benzenesulfonyl fluoride] | – | < 1 | – | – | – | – | – | ≥ 10 |

Further lines, with some results ahead:

| solubility at 24 h [1] [µg/mL] | IC50 [2, 6] [nM] | IC50 ([2]; Table 2) [nM] | Microsomal stability mouse [3] [μl/min/mg prot.] | Microsomal stability human [4] [μl/min/mg prot.] | Kd [5] [nM] | SMILES | residence time ([5]; read-out: Residence time) [min] | residence time [5] [min] |
| --- | --- | --- | --- | --- | --- | --- | --- | --- |
| > 1000 | 1 to 100 | 2 | <10 | <10 | – | CNc1cc(N2CCC[C@@H]2CO)nc(N)n1 [Example 8, [(R)-1-(2-amino-6-methylamino-pyrimidin-4-yl)-pyrrolidin-2-yl]-methanol-formate] | – | – |
| > 1000 | < 1 | < 1 | 43 | <10 | – | CNc1cc(N2CCC(F)(F)C2)nc(N)n1 [Example 3, 6-(3,3-difluoro-pyrrolidin-1-yl)-N^4-methyl-pyrimidine-2,4-diamine] | – | – |
| – | < 1 | – | – | – | 1 to 100 | CNc1cc(N2CCCC2Cc2cccc(C)c2)nc(N)n1 (stereo not drawn) [Example 112, N4-Methyl-6-[2-(3-methyl-benzyl)-pyrrolidin-1-yl]-pyrimidine-2,4-diamine] | – | – |

— patent US20180118721A1, “PYRIMIDINE DERIVATIVES” (Merck Patent GmbH, priority 2015, published 2018)
